Measurements as given in paper PMC10861593, “Kisspeptin-10 binding to Gpr54 in osteoclasts prevents bone loss by activating Dusp18-mediated dephosphorylation of Src” (Nature Communications, 2024).
“Also recorded” adds a separate entry of the source.

Columns and labels:
[1] = tested on: Dusp18 / Gpr54 interaction; assay: Co-IP: interaction of Dusp18 with Gpr54 in RAW264.7 cells; type: cell-based, mouse
Experimental: Beads were analyzed by phosphatase activity assay (a), mass spectrometry assay (b), IB analysis (c) and quantification of protein levels (d). e, f Protein co-localization was analyzed by IF staining in primary pre-osteoclast with 10 nM Kp-10 treatment for 20 min. […] Scale bar, 50 µm. g, h binding affinity was measured by SPR binding analysis. […] Data represent means ± SEM. P values were determined by one-way ANOVA analysis (a, d, j, l) or two-tailed Student’s t-test (f). Representative results were obtained from at least three independent experiments. Source data are provided as a Source Data file.
Whole-cell proteins were extracted using 1x RIPA buffer (25 mM Tris, pH7.5, 150 mM NaCl, 0.5% Sodium deoxycholate, 1% Triton-X-100) supplemented with protease inhibitors (Complete Mini, Roche) and phosphatase inhibitors (phosphatase inhibitor cocktail set I and II, Calbiochem). Immunoprecipitation and immunoblotting with indicated antibodies were performed as described in Supplementary Table 1. Image Jsoftware (V1.52) was used for quantification analysis. Uncropped and unprocessed blots are presented in the Supplementary Information file.

[2] = tested on: Gpr54, Src and Dusp18 co-localization; assay: IF staining / TIRF microscopy co-localization in pre-osteoclasts; type: cell-based, mouse; conditions: 10 nM Kp-10 20 min
Experimental: For endogenous IF staining, BMMs were seeded on confocal dishes and induced by 50 ng/ml RANKL and 10 ng/ml M-CSF for 2 days, and subsequently incubated with or without Kp-10 for 20 min. Cells were fixed in 10% TCA and incubated with anti-Gpr54 (Cell Signaling Technologies, 13776, 1:100), anti-Dusp18 (Santa Cruz., sc-376923, 1:100), or anti-Src (Cell Signaling Technologies, 2110, 1:400) or anti-Src (Cell Signaling Technologies, 2109, 1:400) overnight. IF staining of membrane colocation of Gpr54 with Src or Dusp18, and Src with Dusp18 were detected by Alexa Fluor™ 594 Tyramide SuperBoost™ Kit (Invitrogen, B40925) and Alexa Fluor™ 488 Tyramide SuperBoost™ Kit (Invitrogen, B40912) according to manufacturer’s instructions. The images were obtained by total internal reflection fluorescence (TIRF) microscopy (Ti2-E + H-TIRF, Nikon).

[3] = tested on: phosphatases co-immunoprecipitated with Gpr54; assay: mass spectrometry of anti-Gpr54 IP; type: cell-based, mouse; conditions: RAW264.7 cells, Kp-10 20 min
Experimental: For mass spectrometry (MS) analysis, anti-Gpr54 IP was performed with the whole-cell lysates derived from two 10-cm dishes of RAW264.7 cells with or without Kp-10 treatment for 20 min. The protein complexes after Co-IP were extensively washed with PBS, followed by on-bead digestion. Mass spectra were acquired on a Q-Exactive mass spectrometer (Thermo Scientific, Bremen, Germany). The raw mass spectrometry data were searched against the mouse IPI databases (version 3.86, released on June 28, 2012) using the Proteome Discoverer software suite (Thermo Scientific, San Jose, USA) utilizing a label-free quantification feature. The mass spectrometry proteomics data have been deposited to the ProteomeXchange Consortium via the PRIDE[52] partner repository with the dataset identifier PXD038433.

[4] = tested on: giant cell tumor of bone (GCT) cells; assay: TRAP assay of osteoclast formation in human giant cell tumor of bone (GCT) cells; type: cell-based; conditions: Kp-10 5–7 days
Experimental: BMMs (5 × 10^3 cells/well) were seeded into 96-well plates with a bone slice and incubated with M-CSF (10 ng/ml) and RANKL (50 ng/ml) with or without Kp-10, and the culture medium was changed every other day for 5–7 days. Osteoclasts were fixed and stained by phalloidin and DAPI. “Pits” on bone slice after osteoclast resorption were fixed with 4% Glutaraldehyde and stained with 1% toluidine blue, and pit depth was examined by laser-scanning confocal microscopy. For primary cultures of giant-cell tumor of bone (GCTB) cells, the use of all patient-derived tumor specimens was approved by the Institutional Review Board and the research ethics committee of Shanghai Changzheng Hospital, which appeared in the proceedings of the meeting of the Ethics Committee on 18 November 2014 (report number: 2014090). Informed consent obtained from all tissue donors was written. The GCTB cells were isolated from tumor samples derived from tumor resections in Shanghai Changzheng Hospital, 1 × 10^6 GCTB cells were seeded in a 24-well plate. Cells were stimulated with indicated doses of Kp-10 for 5–7 days. The medium was changed every 2 days. Osteoclasts were fixed and stained using the TRAP-staining kit (Sigma-Aldrich, 387A-1KT).

Kisspeptin-10 [Kp-10]
recruitment of Src and Dusp18 by Gpr54, 10 nM ([1]; 10 nM Kp-10, Co-IP and IF): more significantly recruited
interaction of Dusp18 with Gpr54 ([1]; RAW264.7 cells, indicated dose of Kp-10 for 20 min): dose-dependently induced the interaction of Dusp18 with Gpr54
co-localization of Dusp18 with Gpr54 in the plasma membrane [2]: colocalized with Gpr54 in the plasma membrane especially after treatment of Kp-10
co-localization of Dusp18 with Src in the plasma membrane [2]: colocalized with Src in the plasma membrane especially after treatment with Kp-10
co-localization of Src with Gpr54 on the membrane [2]: co-localized on the membrane with Gpr54 especially after Kp-10 stimulation
phosphatases increasing after Kp-10 stimulation [3]: three increasing phosphatases including DUSP18, PTPN6 and PPP1CA were identified
osteoclast formation [4]: suppressed osteoclast formation; also recorded: dose-dependently suppressed
